From ChEMBL document CHEMBL1201862, “PubChem BioAssay data set” (2004) come the findings set out here.

Molecules are shown by their SMILES. Calls of active or inactive are those of the source.

In experiment [1] the target is C-C chemokine receptor type 6 (Homo sapiens, UniProt P51684). In words: CCR6 receptor antagonists, SAR follow-up, cell-based, luminescent beta-arrestin readout (AID 540334). In kind it is functional.
Experiment [2] is described as follows: cytotoxicity toward NIH3T3 fibroblasts, dose response, counter-screen, cell-based, ATP luminescence, mouse fibroblasts (AID 2010).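 Further: cells exposed to compound for about 90 hours before reading.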 In kind it is functional.
In experiment [3] the target is T1, Replicative DNA helicase DnaB (Mycobacterium tuberculosis, UniProt P9WMR3).
T1 sequence (P9WMR3 whole entry): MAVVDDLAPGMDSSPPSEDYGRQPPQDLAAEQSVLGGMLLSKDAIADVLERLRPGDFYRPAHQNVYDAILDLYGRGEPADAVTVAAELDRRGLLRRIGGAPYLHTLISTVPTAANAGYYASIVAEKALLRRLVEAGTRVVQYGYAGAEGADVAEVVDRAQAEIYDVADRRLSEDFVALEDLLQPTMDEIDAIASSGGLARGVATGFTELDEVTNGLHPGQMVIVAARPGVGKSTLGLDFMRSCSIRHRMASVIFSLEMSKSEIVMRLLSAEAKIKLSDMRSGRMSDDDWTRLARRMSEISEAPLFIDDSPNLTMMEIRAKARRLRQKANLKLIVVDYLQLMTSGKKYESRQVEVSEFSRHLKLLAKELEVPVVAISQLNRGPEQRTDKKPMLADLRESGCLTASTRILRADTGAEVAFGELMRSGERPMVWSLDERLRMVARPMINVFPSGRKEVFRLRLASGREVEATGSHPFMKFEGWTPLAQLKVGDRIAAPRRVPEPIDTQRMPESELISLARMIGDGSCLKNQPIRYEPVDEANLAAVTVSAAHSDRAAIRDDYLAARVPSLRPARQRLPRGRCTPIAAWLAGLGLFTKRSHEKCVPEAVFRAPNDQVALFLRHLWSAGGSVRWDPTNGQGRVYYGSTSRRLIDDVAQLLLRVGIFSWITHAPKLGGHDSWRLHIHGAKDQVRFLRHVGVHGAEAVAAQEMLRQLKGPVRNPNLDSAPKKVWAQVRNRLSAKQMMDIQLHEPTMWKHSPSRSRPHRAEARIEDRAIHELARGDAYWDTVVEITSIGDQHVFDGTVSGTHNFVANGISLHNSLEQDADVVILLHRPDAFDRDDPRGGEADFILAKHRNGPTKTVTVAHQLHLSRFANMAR
Briefly: DnaB intein splicing inhibitors, dose response, biochemical, cell-free fluorescence (AID 449749). In kind it is functional.

Another experiment has as its target Apelin receptor (Homo sapiens, UniProt P35414). In words: APJ beta-arrestin recruitment antagonism, SAR follow-up, selectivity assay for CCR6 antagonist project, cell-based, luminescent, enzyme-fragment complementation (AID 588359). Type of experiment: functional.
Another experiment deals with T2, Protein RecA (Mycobacterium tuberculosis, UniProt P9WHJ3).
T2 sequence (P9WHJ3 whole entry): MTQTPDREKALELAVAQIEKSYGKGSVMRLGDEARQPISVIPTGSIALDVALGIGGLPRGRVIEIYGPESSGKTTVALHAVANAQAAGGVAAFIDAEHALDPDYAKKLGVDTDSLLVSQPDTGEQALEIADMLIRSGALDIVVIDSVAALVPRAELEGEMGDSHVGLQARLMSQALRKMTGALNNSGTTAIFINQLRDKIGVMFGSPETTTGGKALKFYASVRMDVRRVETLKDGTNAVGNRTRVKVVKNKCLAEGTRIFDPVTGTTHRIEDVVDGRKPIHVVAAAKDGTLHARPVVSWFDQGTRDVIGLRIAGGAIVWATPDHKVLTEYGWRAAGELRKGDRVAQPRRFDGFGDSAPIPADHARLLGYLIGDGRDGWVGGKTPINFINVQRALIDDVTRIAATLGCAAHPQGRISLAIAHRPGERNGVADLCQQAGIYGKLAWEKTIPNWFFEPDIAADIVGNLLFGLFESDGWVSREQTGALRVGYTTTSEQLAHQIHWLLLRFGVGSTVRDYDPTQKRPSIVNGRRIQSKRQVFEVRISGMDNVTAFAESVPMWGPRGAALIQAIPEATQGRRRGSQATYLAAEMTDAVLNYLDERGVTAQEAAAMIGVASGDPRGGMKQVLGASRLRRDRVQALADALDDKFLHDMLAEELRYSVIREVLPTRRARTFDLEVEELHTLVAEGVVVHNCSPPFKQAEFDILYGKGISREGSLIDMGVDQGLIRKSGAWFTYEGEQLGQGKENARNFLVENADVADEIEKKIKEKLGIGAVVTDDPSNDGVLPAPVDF
In words: Fluorescence Cell-Free Homogeneous Dose Retest to Identify Inhibitors of RecA-Intein Splicing Activity. [Related pubchem assays (depositor defined):AID2097, AID2223, AID489010, AID492950]. Type of experiment: functional.

Experiment [4] in a line: inhibitors of intracellular T. cruzi replication, confirmation, NIH3T3 host cells, beta-gal luminescence (AID 2044).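 Further: intracellular parasites grown in NIH/3T3 mouse fibroblasts as host cells; luminescent beta-galactosidase reporter signal from transgenic T. cruzi replicating inside host cells; inhibitors lower the luminescence signal.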 In kind it is functional, cell-based.
For experiment [5], the target named is C-X-C chemokine receptor type 5 (Homo sapiens, UniProt P32302). Briefly: CXCR5 receptor antagonists, SAR follow-up, selectivity assay for CCR6 antagonist project, cell-based, beta-arrestin, luminescence, CHO-K1 PathHunter (AID 540340). Type of experiment: functional.
Experiment [6] addresses T3, Heat shock factor protein 1 (Mus musculus, UniProt P38532).
T3 sequence (P38532 whole entry): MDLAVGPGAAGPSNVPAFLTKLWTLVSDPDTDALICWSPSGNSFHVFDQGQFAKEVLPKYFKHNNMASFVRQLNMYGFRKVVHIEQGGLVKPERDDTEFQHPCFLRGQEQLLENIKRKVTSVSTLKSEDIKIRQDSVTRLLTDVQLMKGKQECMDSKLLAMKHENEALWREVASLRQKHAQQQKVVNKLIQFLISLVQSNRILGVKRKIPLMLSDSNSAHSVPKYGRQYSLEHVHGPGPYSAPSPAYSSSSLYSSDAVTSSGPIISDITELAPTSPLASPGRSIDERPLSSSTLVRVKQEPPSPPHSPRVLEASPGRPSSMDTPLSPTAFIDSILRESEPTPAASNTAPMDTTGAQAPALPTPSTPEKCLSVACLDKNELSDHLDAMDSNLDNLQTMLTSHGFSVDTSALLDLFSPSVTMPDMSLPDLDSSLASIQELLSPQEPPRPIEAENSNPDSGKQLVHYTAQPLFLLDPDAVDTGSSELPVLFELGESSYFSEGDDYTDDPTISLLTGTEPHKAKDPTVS
Briefly: HSF1 potentiators in luciferase reporter cells, confirmation, cell-based, NIH3T3, luminescence, dose retest (AID 435004).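 Further: stress induced by proteasome inhibitor MG132 added 30 min after compound; luciferase reporter driven by HSF1 response element in NIH3T3 cells; actives raise luminescence as potentiators of the MG132 stress response.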 In kind it is functional. A general note: In a reporter assay the amount or activity of a reporter protein is the signal.

For experiment [7], the target named is Protein disulfide-isomerase (Homo sapiens, UniProt P07237). Briefly: PDI inhibitors, insulin aggregation turbidity, dose response, biochemical, absorbance, cherry-picked samples (AID 602350). In kind it is functional.
The target of experiment [8] is T4, High affinity choline transporter 1 (Homo sapiens, UniProt Q9GZV3).
T4 sequence (Q9GZV3 whole entry): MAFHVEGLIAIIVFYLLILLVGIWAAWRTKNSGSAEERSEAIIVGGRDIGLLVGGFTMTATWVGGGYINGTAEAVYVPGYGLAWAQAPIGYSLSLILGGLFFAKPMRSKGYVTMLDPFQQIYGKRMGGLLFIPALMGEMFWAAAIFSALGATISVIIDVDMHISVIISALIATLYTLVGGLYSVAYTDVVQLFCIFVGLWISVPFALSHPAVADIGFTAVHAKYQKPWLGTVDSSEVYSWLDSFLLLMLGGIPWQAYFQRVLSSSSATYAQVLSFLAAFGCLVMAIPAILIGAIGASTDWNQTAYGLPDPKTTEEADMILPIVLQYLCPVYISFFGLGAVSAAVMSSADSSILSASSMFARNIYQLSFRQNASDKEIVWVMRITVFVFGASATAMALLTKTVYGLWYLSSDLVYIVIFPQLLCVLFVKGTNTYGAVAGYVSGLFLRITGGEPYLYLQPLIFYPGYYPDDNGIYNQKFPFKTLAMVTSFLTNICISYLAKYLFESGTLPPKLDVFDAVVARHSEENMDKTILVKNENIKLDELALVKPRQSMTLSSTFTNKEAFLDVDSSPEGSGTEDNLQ
In words: CHT activators, dose response, cell-based, 10-point CRC, membrane potential dye (AID 602376). In kind it is functional.

Experiment [9] deals with Mitogen-activated protein kinase 13 (Homo sapiens, UniProt O15264). Type of experiment: functional.
The target in experiment [10] is Ribosomal protein S6 kinase alpha-3 (Homo sapiens, UniProt P51812). In kind it is functional.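 Further: measured within a kinome-wide profiling panel.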
Experiment [11] addresses Serine/threonine-protein kinase Chk2 (Homo sapiens, UniProt O96017). Type of experiment: functional.
Experiment [12] addresses cAMP-dependent protein kinase catalytic subunit alpha (Homo sapiens, UniProt P17612). Type of experiment: functional.
Experiment [13] addresses Serine/threonine-protein kinase Chk1 (Homo sapiens, UniProt O14757). Type of experiment: functional.
Another experiment deals with Aurora kinase A (Homo sapiens, UniProt O14965). Type of experiment: functional.
The target in experiment [14] is Protein kinase C delta type (Homo sapiens, UniProt Q05655). In kind it is functional.
Experiment [15] deals with MAP/microtubule affinity-regulating kinase 3 (Homo sapiens, UniProt P27448). In kind it is functional.
Chain of MAP/microtubule affinity-regulating kinase 3 (P27448 whole entry): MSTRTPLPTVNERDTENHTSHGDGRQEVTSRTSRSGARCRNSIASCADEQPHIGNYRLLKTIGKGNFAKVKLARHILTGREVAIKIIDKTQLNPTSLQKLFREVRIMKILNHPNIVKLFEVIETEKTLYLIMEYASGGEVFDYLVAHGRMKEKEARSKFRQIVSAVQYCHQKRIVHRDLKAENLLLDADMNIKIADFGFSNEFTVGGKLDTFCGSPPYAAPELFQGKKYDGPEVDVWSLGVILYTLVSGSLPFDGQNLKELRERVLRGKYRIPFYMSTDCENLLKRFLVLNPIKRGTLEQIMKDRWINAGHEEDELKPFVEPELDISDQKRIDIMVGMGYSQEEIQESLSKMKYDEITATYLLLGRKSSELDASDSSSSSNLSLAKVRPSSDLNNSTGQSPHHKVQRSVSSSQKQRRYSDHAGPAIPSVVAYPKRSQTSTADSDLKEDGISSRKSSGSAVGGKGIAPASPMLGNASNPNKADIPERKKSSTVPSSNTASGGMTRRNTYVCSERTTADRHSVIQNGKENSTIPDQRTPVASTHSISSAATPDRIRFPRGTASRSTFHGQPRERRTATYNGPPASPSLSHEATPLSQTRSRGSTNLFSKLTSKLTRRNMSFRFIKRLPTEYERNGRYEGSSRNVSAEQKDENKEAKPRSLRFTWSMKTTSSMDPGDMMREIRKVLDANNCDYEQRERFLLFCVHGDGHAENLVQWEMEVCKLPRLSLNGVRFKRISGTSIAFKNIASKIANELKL

Chain of Aurora kinase A (O14965 whole entry): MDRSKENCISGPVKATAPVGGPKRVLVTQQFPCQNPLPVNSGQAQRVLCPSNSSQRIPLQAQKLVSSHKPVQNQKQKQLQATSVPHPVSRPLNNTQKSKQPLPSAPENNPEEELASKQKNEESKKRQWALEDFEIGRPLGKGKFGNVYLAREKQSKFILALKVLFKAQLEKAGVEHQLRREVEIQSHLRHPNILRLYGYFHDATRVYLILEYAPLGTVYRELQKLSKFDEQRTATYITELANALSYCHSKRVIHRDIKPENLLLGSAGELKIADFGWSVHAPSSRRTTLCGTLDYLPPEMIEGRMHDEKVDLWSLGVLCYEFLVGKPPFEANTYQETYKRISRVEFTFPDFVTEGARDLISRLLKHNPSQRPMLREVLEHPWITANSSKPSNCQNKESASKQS
Chain of Apelin receptor (P35414 whole entry, the tested form may be a part): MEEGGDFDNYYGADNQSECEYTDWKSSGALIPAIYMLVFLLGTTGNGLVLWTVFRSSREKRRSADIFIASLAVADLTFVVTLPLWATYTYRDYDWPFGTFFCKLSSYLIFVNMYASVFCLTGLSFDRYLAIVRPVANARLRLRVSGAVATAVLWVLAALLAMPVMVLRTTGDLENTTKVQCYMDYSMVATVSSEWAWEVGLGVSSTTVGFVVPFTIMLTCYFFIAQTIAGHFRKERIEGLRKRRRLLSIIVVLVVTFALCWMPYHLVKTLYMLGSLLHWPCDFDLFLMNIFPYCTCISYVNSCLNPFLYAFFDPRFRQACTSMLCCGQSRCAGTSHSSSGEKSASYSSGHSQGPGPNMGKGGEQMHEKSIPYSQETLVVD
Chain of C-C chemokine receptor type 6 (P51684 whole entry): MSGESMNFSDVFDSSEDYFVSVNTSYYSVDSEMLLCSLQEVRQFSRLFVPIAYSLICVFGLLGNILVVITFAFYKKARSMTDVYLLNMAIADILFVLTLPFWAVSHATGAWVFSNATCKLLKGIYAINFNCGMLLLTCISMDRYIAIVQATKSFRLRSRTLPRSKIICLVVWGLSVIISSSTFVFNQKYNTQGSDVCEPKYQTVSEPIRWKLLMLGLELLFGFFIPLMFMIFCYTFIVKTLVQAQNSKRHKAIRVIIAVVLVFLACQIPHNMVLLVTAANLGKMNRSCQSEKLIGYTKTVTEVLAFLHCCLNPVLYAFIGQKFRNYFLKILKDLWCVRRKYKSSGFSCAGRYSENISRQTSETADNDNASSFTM
Chain of Protein disulfide-isomerase (P07237 whole entry): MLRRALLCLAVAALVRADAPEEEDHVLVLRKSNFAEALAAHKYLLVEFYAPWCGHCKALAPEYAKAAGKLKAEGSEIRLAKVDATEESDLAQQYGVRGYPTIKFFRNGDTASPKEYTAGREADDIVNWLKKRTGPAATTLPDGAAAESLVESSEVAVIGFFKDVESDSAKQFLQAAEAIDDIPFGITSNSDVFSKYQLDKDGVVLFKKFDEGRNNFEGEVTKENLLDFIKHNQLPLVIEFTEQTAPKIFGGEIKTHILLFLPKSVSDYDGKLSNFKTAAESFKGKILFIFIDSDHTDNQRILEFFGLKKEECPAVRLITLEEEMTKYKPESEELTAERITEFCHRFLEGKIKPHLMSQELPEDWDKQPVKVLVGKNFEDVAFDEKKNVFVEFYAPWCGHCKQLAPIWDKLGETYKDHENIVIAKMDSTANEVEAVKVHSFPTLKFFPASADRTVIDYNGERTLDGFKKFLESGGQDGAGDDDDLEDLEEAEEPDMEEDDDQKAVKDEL
Chain of Serine/threonine-protein kinase Chk2 (O96017 whole entry): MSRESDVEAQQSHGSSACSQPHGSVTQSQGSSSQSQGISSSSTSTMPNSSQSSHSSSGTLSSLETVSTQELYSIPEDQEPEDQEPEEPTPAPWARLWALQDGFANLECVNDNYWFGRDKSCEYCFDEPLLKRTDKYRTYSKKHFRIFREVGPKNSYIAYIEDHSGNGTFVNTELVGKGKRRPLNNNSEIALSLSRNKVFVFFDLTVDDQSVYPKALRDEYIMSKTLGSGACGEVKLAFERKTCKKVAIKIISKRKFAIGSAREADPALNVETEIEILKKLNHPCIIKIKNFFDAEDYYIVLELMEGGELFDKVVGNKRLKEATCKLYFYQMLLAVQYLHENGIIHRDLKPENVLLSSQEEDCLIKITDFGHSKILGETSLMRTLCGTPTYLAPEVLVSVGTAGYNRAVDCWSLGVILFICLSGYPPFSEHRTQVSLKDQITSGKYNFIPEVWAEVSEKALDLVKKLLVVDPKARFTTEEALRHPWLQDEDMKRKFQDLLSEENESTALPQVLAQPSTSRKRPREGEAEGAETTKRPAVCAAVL
Chain of Ribosomal protein S6 kinase alpha-3 (P51812 whole entry): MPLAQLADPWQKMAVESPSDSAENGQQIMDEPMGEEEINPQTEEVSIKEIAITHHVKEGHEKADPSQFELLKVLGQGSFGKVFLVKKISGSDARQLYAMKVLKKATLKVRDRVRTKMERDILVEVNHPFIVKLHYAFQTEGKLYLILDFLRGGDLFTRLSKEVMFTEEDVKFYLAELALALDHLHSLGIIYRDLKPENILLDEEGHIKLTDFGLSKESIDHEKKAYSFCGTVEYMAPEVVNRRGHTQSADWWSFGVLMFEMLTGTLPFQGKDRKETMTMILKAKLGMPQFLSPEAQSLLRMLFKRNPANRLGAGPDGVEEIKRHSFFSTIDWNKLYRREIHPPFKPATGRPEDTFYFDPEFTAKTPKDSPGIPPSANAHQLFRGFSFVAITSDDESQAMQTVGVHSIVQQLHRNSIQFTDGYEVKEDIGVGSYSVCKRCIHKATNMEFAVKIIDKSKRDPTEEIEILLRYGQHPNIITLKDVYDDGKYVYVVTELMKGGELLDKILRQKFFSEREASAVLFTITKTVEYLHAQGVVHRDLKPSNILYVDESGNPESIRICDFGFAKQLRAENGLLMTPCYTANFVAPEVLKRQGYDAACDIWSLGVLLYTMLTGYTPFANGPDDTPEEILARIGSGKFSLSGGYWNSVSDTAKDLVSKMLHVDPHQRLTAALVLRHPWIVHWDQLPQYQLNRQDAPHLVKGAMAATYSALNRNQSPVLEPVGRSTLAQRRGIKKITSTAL
Chain of Mitogen-activated protein kinase 13 (O15264 whole entry): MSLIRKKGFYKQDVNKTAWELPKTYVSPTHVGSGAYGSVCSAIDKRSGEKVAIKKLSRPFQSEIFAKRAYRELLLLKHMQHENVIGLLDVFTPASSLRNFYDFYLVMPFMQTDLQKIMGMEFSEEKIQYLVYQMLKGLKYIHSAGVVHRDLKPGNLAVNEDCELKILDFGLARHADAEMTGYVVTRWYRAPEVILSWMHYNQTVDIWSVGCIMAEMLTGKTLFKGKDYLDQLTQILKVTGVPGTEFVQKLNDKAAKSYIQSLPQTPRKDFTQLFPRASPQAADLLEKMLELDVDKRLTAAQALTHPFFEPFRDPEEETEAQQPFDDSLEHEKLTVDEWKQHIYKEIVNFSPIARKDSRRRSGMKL
Chain of C-X-C chemokine receptor type 5 (P32302 whole entry): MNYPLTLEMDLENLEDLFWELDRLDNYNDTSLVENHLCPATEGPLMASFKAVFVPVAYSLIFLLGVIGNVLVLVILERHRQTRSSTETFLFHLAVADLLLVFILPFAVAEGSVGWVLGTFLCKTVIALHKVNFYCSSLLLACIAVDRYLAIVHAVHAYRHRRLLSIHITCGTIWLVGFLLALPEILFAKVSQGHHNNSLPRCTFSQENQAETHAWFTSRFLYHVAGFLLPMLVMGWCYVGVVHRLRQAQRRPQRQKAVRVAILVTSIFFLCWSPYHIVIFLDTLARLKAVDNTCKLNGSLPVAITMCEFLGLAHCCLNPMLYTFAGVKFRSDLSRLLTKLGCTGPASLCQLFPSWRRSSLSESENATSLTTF
Chain of Serine/threonine-protein kinase Chk1 (O14757 whole entry): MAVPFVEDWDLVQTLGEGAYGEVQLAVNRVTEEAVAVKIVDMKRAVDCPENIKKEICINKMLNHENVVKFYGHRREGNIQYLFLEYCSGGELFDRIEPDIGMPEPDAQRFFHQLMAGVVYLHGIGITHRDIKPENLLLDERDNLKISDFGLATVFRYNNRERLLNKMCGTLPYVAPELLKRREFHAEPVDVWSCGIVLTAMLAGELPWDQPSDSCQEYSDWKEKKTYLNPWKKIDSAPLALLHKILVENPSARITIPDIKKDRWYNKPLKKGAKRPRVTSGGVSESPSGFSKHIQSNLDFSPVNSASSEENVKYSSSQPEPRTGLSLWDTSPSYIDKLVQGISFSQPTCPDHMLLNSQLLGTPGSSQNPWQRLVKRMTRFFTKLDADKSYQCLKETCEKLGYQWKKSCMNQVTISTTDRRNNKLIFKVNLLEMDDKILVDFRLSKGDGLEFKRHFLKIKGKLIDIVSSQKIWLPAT

As a reminder, the IC50 is the concentration that gives 50% inhibition. The term EC50 denotes the concentration giving half of the maximal effect. For orientation: AC50 means the concentration at which the activity in the assay is half-maximal. On to `CN1CCc2nc(SCc3ccc(Cl)cc3)c(C#N)c(-c3cccs3)c2C1`, for which the figures for the IC50 (in [1]; at Apelin receptor; in [5]) were > 66.6 µM (inactive), > 66.6 µM (inactive) and 26.3 µM (inactive), respectively. Further, the EC50 is 0.014 µM (active) in “cells”; > 60 µM (not active) in experiment [2]; 4.41 µM (active) at Protein RecA; < 0.1 µM (active) in experiment [4]; 10.1 µM (active) in experiment [6]. Besides, the AC50 in experiment [3] was > 380 µM (inactive).

In the case of `O=S(=O)(c1ccccc1)N1N=C(c2ccc(O)cc2)CC1c1ccco1` (centres undefined), in [7], the concentration at half-maximal activity (AC50) is 19.5 µM (active).

With `CC(c1ccccc1)N(CCC(c1ccccc1)C1CCOC(C)(C)C1)C(=O)c1ccco1` (centres undefined), the EC50 in [8] is 5.67 µM (active).

A word on the Ki: it is a measure of affinity in units of concentration, obtained from inhibition or displacement. Consider `O=C(Nc1cnccn1)Nc1ccnc2c(F)cccc12`, for which the Ki in experiment [9] was > 7.94 µM (inactive).

For the compound `CN(C)c1ncnc2nc[nH]c12` [DIMETHYLADENINE], the Ki in experiment [10] was 5.01 µM (active); in experiment [11], 3.98 µM (active); in [12], 15.8 µM (active); in experiment [13], 12.6 µM (active); on Aurora kinase A it was 3.98 µM (active); in [14], 12.6 µM (active). Also, the Ki in [15] is 5.01 µM (active).
